Test results taken from the supplement of paper PMC4862054.
“And” between values parts separate entries of the source, which are not always exact repeats. Equal entries are not always repeated.

Experiments:
Conditions in all cases: incubation time: 72 h
[1] = system: BT-474; assay: drug sensitivity score (DSS), CellTiter-Blue viability (DSS (AUC-based score)); higher = stronger viability inhibition; extreme values may be limits of the assay
Description: (§1)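 DSRT with the CellTiter-Blue (resazurin reduction) viability readout, fluorescence 560/590 nm, 72 h incubation. Plates were normalised to DMSO and benzethonium chloride controls. DSS is computed from the area under the fitted dose-response curve (5 or 9 concentrations).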

[2] = system: MFM-223; assay: as above
Description: as §1

[3] = system: DU-4475; assay: as above
Description: as §1

[4] = system: MDA-MB-231; assay: as above
Description: as §1

[5] = system: BT-549; assay: as above
Description: as §1

[6] = system: MDA-MB-453; assay: as above
Description: as §1

[7] = system: CAL-51; assay: as above
Description: as §1

[8] = system: HCC1937; assay: as above
Description: as §1

[9] = system: Hs578T; assay: as above
Description: as §1

[10] = system: HCC1599; assay: as above
Description: as §1

[11] = system: MDA-MB-436; assay: as above
Description: as §1

[12] = system: HDQ-P1; assay: as above
Description: as §1

[13] = system: SK-BR-3; assay: as above
Description: as §1

[14] = system: CAL-120; assay: as above
Description: as §1

[15] = system: CAL-85-1; assay: as above
Description: as §1

[16] = system: HCC1143; assay: as above
Description: as §1

[17] = system: BT-474; assay: drug sensitivity score (DSS), CellTiter-Glo (DSS (AUC-based score)); higher = stronger drug effect (viability inhibition or cytotoxicity); extreme values may be limits of the assay
How it was run: (§2)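 After 72 h of incubation in 384-well plates with compound at 5 concentrations (10-fold steps, 10,000-fold range set per compound), breast cancer cell lines seeded in 20 µl suspension were read first for CellTox Green fluorescence at 485/520 nm. CellTiter-Glo luminescence was measured next, after 10 min at room temperature. Normalisation on each plate used 0.1 % DMSO and a positive kill control, and the drug sensitivity score was computed from the area under the fitted dose-response curve.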

[18] = system: MFM-223; assay: as above
How it was run: as §2

[19] = system: MDA-MB-468; assay: as above
How it was run: as §2

[20] = system: MDA-MB-231; assay: as above
How it was run: as §2

[21] = system: BT-549; assay: as above
How it was run: as §2

[22] = system: HCC1937; assay: as above
How it was run: as §2

[23] = system: MDA-MB-436; assay: as above
How it was run: as §2

[24] = system: CAL-120; assay: as above
How it was run: as §2

[25] = system: HCC1143; assay: as above
How it was run: as §2

[26] = system: CAL-148; assay: as above
How it was run: as §2

Structure (SMILES)	drug sensitivity score [1]	drug sensitivity score [2]	drug sensitivity score [3]	drug sensitivity score [4]	drug sensitivity score [5]	drug sensitivity score [6]	drug sensitivity score [7]	drug sensitivity score [8]	drug sensitivity score [9]	drug sensitivity score [10]	drug sensitivity score [11]	drug sensitivity score [12]	drug sensitivity score [13]	drug sensitivity score [14]	drug sensitivity score [15]	drug sensitivity score [16]	drug sensitivity score [17]	drug sensitivity score [18]	drug sensitivity score [19]	drug sensitivity score [20]	drug sensitivity score [21]	drug sensitivity score [22]	drug sensitivity score [23]	drug sensitivity score [24]	drug sensitivity score [25]	drug sensitivity score [26]
C=CC(=O)N1CCC[C@@H](n2nc(-c3ccc(Oc4ccccc4)cc3)c3c(N)ncnc32)C1	12.7	0	0	0	0	14.8	0	0	0	0	0	1.18	18.7	0	5.07	0										
CC(=O)Nc1cccc(-n2c(=O)n(C3CC3)c(=O)c3c(Nc4ccc(I)cc4F)n(C)c(=O)c(C)c32)c1	0	0	39.6	21.7	0	6.65	7.72	0	0	8.87	0	12.7	0	8.88	12.1	9.72										
CCc1cncnc1N1CCN(Cc2nc3ccc(C(F)(F)F)cc3[nH]2)CC1	0	0	0	0	0	0	0	0	0	0	0	0	0	0	0	0	0.467	0	2.68	0	1.94	0	0	0.0627	0	0
Cc1cnc(NC(=O)Nc2cc(Br)c(C)cc2OC[C@@H]2CNCCO2)cn1	0	0	0	0	0	0	0	5.26	1.59	2.32	3.49	0	1.9	0	0	0										
NCCCNCCSP(=O)(O)O [Amifostine]	0	0	0	0	0	0	0	0	0	3.86	0	0	0	0	0	0										
CC[C@@H]1C(=O)N(C)c2cnc(Nc3ccc(C(=O)NC4CCN(C)CC4)cc3OC)nc2N1C1CCCC1 [BI 2536]	0	19	19.3	16.4	21.3	23	20.7	22.8	8.18	0	7.37	5.37	25.6	21.6	14.7	13.2	8.94	16.7	19.5	13.3	21.3	0	14	11.2	15.7	5.51
CC[C@H](Nc1ncnc2[nH]cnc12)c1nc2cccc(F)c2c(=O)n1-c1ccccc1 [CAL-101]	0	0	2.91	0	1.74	2.74	0	0	0	3.9	0	2.23	2.96	1.02	0	1.48										
O=C(O)CCCCC(CCSCc1ccccc1)SCc1ccccc1 (stereo not given) [CPI-613]																	0	0	0	0	0	0	0	0	0	0
C=CC(=O)Nc1cc2c(Nc3ccc(F)c(Cl)c3)ncnc2cc1OCCCN1CCOCC1 [Canertinib]	18.5	5.96	2.6	8.24	6.86	15.9	3.66	7.24	4.83	1.14	11.6	14	27.4	6.69	11.9	3.63	6.57	3.18	10.6	8.75	7.57	5.34	4.2	3.29	3.9	5.7
O=C(/C=C/c1cccnc1)NCCCCC1CCN(C(=O)c2ccccc2)CC1 [Daporinad]																	13.4	31.4	30	14.8	0	21.4	8.81	20.9	22.2	6.26
Nc1ncn([C@H]2C[C@H](O)[C@@H](CO)O2)c(=O)n1 [Decitabine]		0	4.16 and 2.07		4.59 and 2.2			3.95 and 4.59	0			0	2.77 and 1.44	0	0	5.09 and 8.28	0.527	0	19	0	3.92	1.42	0	0.811	0	0
O=C(/C=C/c1cccnc1)NCCCCC1CCN(C(=O)c2ccccc2)CC1 [FK-866]	9.11	23.9	19.8	15.6	23.9	27.2	14.5	7.6	25.5	18.7	22.3	9.7	0	19.4	9.18	22.2										
CC[C@H](Nc1ncnc2[nH]cnc12)c1nc2cccc(F)c2c(=O)n1-c1ccccc1 [GS-1101]																	2.65	0	2.6	1.82	2.49	0	3.18	1.34	0	0
C=CC(=O)N1CCC[C@@H](n2nc(-c3ccc(Oc4ccccc4)cc3)c3c(N)ncnc32)C1 [Ibrutinib]																	0	0	0.811	0	0	0	0	0	0	0
C=CCc1cccc(/C=N/NC(=O)CN2CCN(Cc3ccccc3)CC2)c1O [PAC-1]																	2.94	1.4	3.77	2.27	7.1	3.44	5.19	3.26	1.38	2.16
CC[C@H](C)C(=O)O[C@H]1C[C@H](O)C=C2C=C[C@H](C)[C@H](CC[C@@H](O)C[C@@H](O)CC(=O)O)[C@H]21 [Pravastatin]																	3.69	2.84	3.34	0	2.77	3.68	26.2	2.92	2.94	3.75
Cc1cnc(NC(=O)Nc2cc(Br)c(C)cc2OC[C@@H]2CNCCO2)cn1 [Rabusertib]																	0	0	0	0	0	0	0	0	0	0
CNC(=O)c1cc(Oc2ccc(NC(=O)Nc3cc(C(C)(C)C)nn3-c3ccc4ncccc4c3)c(F)c2)ccn1 [Rebastinib]																	0.877	6.56	0	0	0	0	0	2.56	0	0
CC(=O)Nc1cccc(-n2c(=O)n(C3CC3)c(=O)c3c(Nc4ccc(I)cc4F)n(C)c(=O)c(C)c32)c1 [Trametinib]																	5.25	1.88	1.05	5.25	0	3.49	0.966	5.16	0	0
C1CN1c1nc(N2CC2)nc(N2CC2)n1 [Triethylenemelamine]	0	0	0	2.85	1.53	1.28	0	0	0	0	0	0	0	0	0	0										
COc1cc2c(NC3CCN(C(C)C)CC3)nc(C3CCCCC3)nc2cc1OCCCN1CCCC1 [UNC0638]																	6.49	6.13	8.02	6.74	6.76	5.15	6.5	6.05	3.85	5.21
